Tested on: C2C12 myoblasts
Assay: PA catabolism and Nrf2-antioxidant pathway in C2C12 cells (Pah, tyrosine, 2-SC)
Format: cell-based
Conditions: data not shown
Method: Cells were washed briefly with ice-cold 1×PBS, scraped in 400 μL T-PER lysis buffer (ThermoFisher) supplemented with 0.1 mM phenylmethylsulphonyl fluoride (PMSF) and protease/phosphatase inhibitor cocktail tablet (ThermoFisher). Pulverised tissue samples (20-30 mg) were lysed in the same buffer accelerated by sonication and passing through a 21 G needle. To pellet any debris, lysates were centrifuged at 10,000 g for 10 minutes at 4° C., with the supernatant transferred to fresh tubes. Protein concentrations were determined with Bradford assay (Biorad) and lysates were diluted to equal concentration with lysis buffer. […]
C2C12 (ATCC® CRL-1772™) myoblasts maintained in DMEM supplemented with L-glutamine (2 mM), penicillin/streptomycin (1%) and 5% fetal bovine serum (FBS) were seeded either at a density of 5×10^4 cells (<50%) per well in 24-well plates or 10^4 cells in 4-well chamber slides. […] Cells were analysed for oxidative stress with MitoSOX™ (mitochondrial superoxide; 5 μM, ThermoFisher Scientific), CellROX™ (cytosolic superoxide; 5 μM, ThermoFisher Scientific), gene or protein expression, or various metabolites (see below).
Levels of reduced glutathione (GSH; ThermoFisher), phenylalanine (BioVision) and tyrosine (BioVision) were determined from cells or plasma, with respective agents/kits following the manufacturer's recommendations. […]

## CC(O)C(O)C1CNc2nc(N)[nH]c(=O)c2N1 (centres unmarked) [BH4, 2-amino-6-(1,2-dihydroxypropyl)-5,6,7,8-tetrahydro-3H-pteridin-4-one]
BH4-dependent succination
  succination-sensitive Nrf2-antioxidant pathway: activation
  PA catabolism: cellular levels of Pah, tyrosine and 2-succinylcysteine (2-SC): increased

Reference: patent US20220268782A1, “METHODS FOR PREDICTING AND TREATING CARDIAC DYSFUNCTION” (INSERM (INSTITUT NATIONAL DE LA SANTÉ EAT DE LA RECHERCHE …, priority 2019, published 2022)
